Measured values taken from article PMC10178848, “Modulating fast skeletal muscle contraction protects skeletal muscle in animal models of Duchenne muscular dystrophy” (The Journal of Clinical Investigation, 2023).

System: mdx mouse EDL muscle
Test: Phosphoprotein array analysis (Cell Signaling Phospho Antibody Array)
Protocol: mdx mouse EDL muscle was prepared for ex vivo analysis as described (n = 5). Muscles were incubated for 1 hour with DMSO or EDG-5506 (5 μM) and then flash frozen in liquid nitrogen. Tissue preparation and analysis were performed as recommended by the manufacturer (Cell Signaling Phospho Antibody Array, Full Moon Biosystems).

O=c1ccc(-c2cnc(OCC(F)(F)F)nc2)nn1Cc1cncc(F)c1 [EDG-5506]
Fold Change T/C: PPAR-gamma (Ab-112) (5 μM, 1 hour): 1.49 | Fold Change T/C: PPAR-gamma (Phospho-Ser112) (5 μM, 1 hour): 1.26 | Fold Change T/C: PTEN (Ab-380) (5 μM, 1 hour): 1.13 | Fold Change T/C: Raf1 (Ab-43) (5 μM, 1 hour): 0.90 | Fold Change T/C: Rb (Ab-807) (5 μM, 1 hour): 2.11 | Fold Change T/C: Rb (Phospho-Ser807) (5 μM, 1 hour): 0.91 | Fold Change T/C: RelB (Phospho-Ser552) (5 μM, 1 hour): 0.76 | Fold Change T/C: SAPK/JNK (Phospho-Tyr185) (5 μM, 1 hour): 0.84 | Fold Change T/C: SHP-2 (Phospho-Tyr542) (5 μM, 1 hour): 0.91 | Fold Change T/C: SRF (Ab-99) (5 μM, 1 hour): 1.97 | Fold Change T/C: STAT3 (Ab-705) (5 μM, 1 hour): 1.05 | Fold Change T/C: STAT3 (Phospho-Tyr705) (5 μM, 1 hour): 0.92 | Fold Change T/C: STAT4 (Phospho-Tyr693) (5 μM, 1 hour): 1.04 | Fold Change T/C: STAT5A (Ab-780) (5 μM, 1 hour): 0.86 | Fold Change T/C: STAT6 (Ab-645) (5 μM, 1 hour): 1.12 | Fold Change T/C: STAT6 (Phospho-Thr645) (5 μM, 1 hour): 0.89 | Fold Change T/C: SYK (Ab-525) (5 μM, 1 hour): 0.99 | Fold Change T/C: SYK (Phospho-Tyr348) (5 μM, 1 hour): 0.91 | Fold Change T/C: Shc (Ab-349) (5 μM, 1 hour): 0.62 | Fold Change T/C: Smad1 (Ab-465) (5 μM, 1 hour): 0.82 | Fold Change T/C: Smad1 (Phospho-Ser187) (5 μM, 1 hour): 1.60 | Fold Change T/C: Smad2 (Ab-255) (5 μM, 1 hour): 2.57 | Fold Change T/C: Smad2 (Phospho-Ser467) (5 μM, 1 hour): 1.00 | Fold Change T/C: Smad2/3 (Phospho-Thr8) (5 μM, 1 hour): 1.25 | Fold Change T/C: Smad3 (Ab-425) (5 μM, 1 hour): 0.52 | Fold Change T/C: Smad3 (Phospho-Ser213) (5 μM, 1 hour): 1.26 | Fold Change T/C: Src (Ab-418) (5 μM, 1 hour): 1.70 | Fold Change T/C: Src (Phospho-Tyr418) (5 μM, 1 hour): 0.77 | Fold Change T/C: TGFBR2 (Ab-250) (5 μM, 1 hour): 0.90 | Fold Change T/C: Tau (Ab-235) (5 μM, 1 hour): 1.98 | Fold Change T/C: Tau (Phospho-Ser396) (5 μM, 1 hour): 0.90 | Fold Change T/C: Trk B (Ab-515) (5 μM, 1 hour): 1.53 | Fold Change T/C: Tubulin-b (5 μM, 1 hour): 1.09 | Fold Change T/C: VASP (Ab-157) (5 μM, 1 hour): 1.26 | Fold Change T/C: VEGFR2 (Ab-1214) (5 μM, 1 hour): 1.07 | Fold Change T/C: VEGFR2 (Phospho-Tyr1175) (5 μM, 1 hour): 0.84 | Fold Change T/C: Zap-70 (Ab-319) (5 μM, 1 hour): 1.12 | Fold Change T/C: Zap-70 (Phospho-Tyr319) (5 μM, 1 hour): 1.04 | Fold Change T/C: c-Abl (Ab-412) (5 μM, 1 hour): 0.93 | Fold Change T/C: c-Jun (Ab-243) (5 μM, 1 hour): 1.03 | Fold Change T/C: c-Jun (Phospho-Ser73) (5 μM, 1 hour): 0.91 | Fold Change T/C: eEF2K (Ab-366) (5 μM, 1 hour): 2.10 | Fold Change T/C: eIF2A (Ab-51) (5 μM, 1 hour): 0.86 | Fold Change T/C: eNOS (Ab-1179) (5 μM, 1 hour): 0.92 | Fold Change T/C: p44/42 MAP Kinase (Phospho-Tyr204) (5 μM, 1 hour): 0.88 | Fold Change T/C: p53 (Ab-315) (5 μM, 1 hour): 1.69 | Fold Change T/C: p53 (Phospho-Ser15) (5 μM, 1 hour): 0.20 | changes in implicated signaling pathways (Akt, IGF1, LTBP4/TGF-β) (5 μM, 1 hour): no consistent changes in implicated pathways | Average Signal of Replicate Spots: 4E-BP1 (Phospho-Thr45) (4000031744 (T)): 3952 | Average Signal of Replicate Spots: 14-3-3 theta/tau (Phospho-Ser232) (4000031744 (T)): 1343 | Average Signal of Replicate Spots: ACC1 (Phospho-Ser80) (4000031744 (T)): 1068 | Average Signal of Replicate Spots: AMPKbeta1 (Phospho-Ser182) (4000031744 (T)): 1111 | Average Signal of Replicate Spots: B-RAF (Phospho-Ser446) (4000031744 (T)): 1461 | Average Signal of Replicate Spots: BAX (Phospho-Thr167) (4000031744 (T)): 923 | Average Signal of Replicate Spots: BCL-XL (Phospho-Ser62) (4000031744 (T)): 3298 | Average Signal of Replicate Spots: BLNK (Phospho-Tyr96) (4000031744 (T)): 811 | Average Signal of Replicate Spots: CBL (Phospho-Tyr700) (4000031744 (T)): 1571 | Average Signal of Replicate Spots: CDK1/CDC2 (Phospho-Tyr15) (4000031744 (T)): 1071 | Average Signal of Replicate Spots: CREB (Phospho-Ser133) (4000031744 (T)): 971 | Average Signal of Replicate Spots: CaMK2-beta/gamma/delta (Phospho-Thr287) (4000031744 (T)): 1442 | Average Signal of Replicate Spots: CaMK2A (Phospho-Thr286) (4000031744 (T)): 1017 | Average Signal of Replicate Spots: Caspase 8 (Phospho-Ser347) (4000031744 (T)): 1275 | Average Signal of Replicate Spots: Caspase 9 (Phospho-Ser196) (4000031744 (T)): 3581 | Average Signal of Replicate Spots: Catenin beta (Phospho-Thr41/Ser45) (4000031744 (T)): 1080 | Average Signal of Replicate Spots: Chk2 (Phospho-Thr68) (4000031744 (T)): 787 | Average Signal of Replicate Spots: Cyclin D1 (Phospho-Thr286) (4000031744 (T)): 2969 | Average Signal of Replicate Spots: Cyclin E1 (Phospho-Thr77) (4000031744 (T)): 1889 | Average Signal of Replicate Spots: DARPP-32 (Phospho-Thr34) (4000031744 (T)): 1112 | Average Signal of Replicate Spots: EEF2 (Phospho-Thr56) (4000031744 (T)): 1593 | Average Signal of Replicate Spots: FADD (Phospho-Ser194) (4000031744 (T)): 2520 | Average Signal of Replicate Spots: FAK (Phospho-Ser910) (4000031744 (T)): 1946 | Average Signal of Replicate Spots: FGFR1 (Phospho-Tyr654) (4000031744 (T)): 2920 | Average Signal of Replicate Spots: GRK2 (Phospho-Ser29) (4000031744 (T)): 1817 | Average Signal of Replicate Spots: GSK3 alpha/beta (Phospho-Tyr216/279) (4000031744 (T)): 1223 | Average Signal of Replicate Spots: Gab2 (Phospho-Tyr643) (4000031744 (T)): 5234 | Average Signal of Replicate Spots: HDAC1 (Phospho-Ser421) (4000031744 (T)): 1842 | Average Signal of Replicate Spots: HDAC2 (Phospho-Ser394) (4000031744 (T)): 1737 | Average Signal of Replicate Spots: HSP90B (Phospho-Ser226) (4000031744 (T)): 2514 | Average Signal of Replicate Spots: IKK-beta (Phospho-Tyr188) (4000031744 (T)): 1332 | Average Signal of Replicate Spots: IKK-beta (Phospho-Tyr199) (4000031744 (T)): 1363 | Average Signal of Replicate Spots: IKK-gamma (Phospho-Ser31) (4000031744 (T)): 1172 | Average Signal of Replicate Spots: IL-4R/CD124 (Phospho-Tyr497) (4000031744 (T)): 1616 | Average Signal of Replicate Spots: IL-10R-alpha (Phospho-Tyr496) (4000031744 (T)): 1513 | Average Signal of Replicate Spots: IkB-alpha (Phospho-Ser32/36) (4000031744 (T)): 10513 | Average Signal of Replicate Spots: Integrin beta-3 (Phospho-Tyr773) (4000031744 (T)): 1072 | Average Signal of Replicate Spots: JunB (Phospho-Ser259) (4000031744 (T)): 1085 | Average Signal of Replicate Spots: LYN (Phospho-Tyr507) (4000031744 (T)): 1395 | Average Signal of Replicate Spots: Lamin A/C (Phospho-Ser392) (4000031744 (T)): 969 | Average Signal of Replicate Spots: MEK1 (Phospho-Ser217) (4000031744 (T)): 790 | Average Signal of Replicate Spots: NFkB-p65 (Phospho-Ser311) (4000031744 (T)): 1154 | Average Signal of Replicate Spots: NFkB-p100/p52 (Phospho-Ser865) (4000031744 (T)): 1360 | Average Signal of Replicate Spots: P38 MAPK (Phospho-Thr180/Tyr182) (4000031744 (T)): 2391 | Average Signal of Replicate Spots: P70S6K (Phospho-Ser424) (4000031744 (T)): 1169 | Average Signal of Replicate Spots: P90RSK (Phospho-Thr359/Ser363) (4000031744 (T)): 1665 | Average Signal of Replicate Spots: PDK1 (Phospho-Ser241) (4000031744 (T)): 2037 | Average Signal of Replicate Spots: PLCG1 (Phospho-Tyr783) (4000031744 (T)): 8981 | Average Signal of Replicate Spots: PLK1 (Phospho-Thr210) (4000031744 (T)): 732 | Average Signal of Replicate Spots: PP2A-alpha (Phospho-Tyr307) (4000031744 (T)): 1166 | Average Signal of Replicate Spots: PPAR-gamma (Phospho-Ser112) (4000031744 (T)): 1480 | Average Signal of Replicate Spots: Rb (Phospho-Ser807) (4000031744 (T)): 1194 | Average Signal of Replicate Spots: RelB (Phospho-Ser552) (4000031744 (T)): 3212 | Average Signal of Replicate Spots: SAPK/JNK (Phospho-Tyr185) (4000031744 (T)): 1041 | Average Signal of Replicate Spots: SHP-2 (Phospho-Tyr542) (4000031744 (T)): 1268 | Average Signal of Replicate Spots: STAT3 (Phospho-Tyr705) (4000031744 (T)): 1079 | Average Signal of Replicate Spots: STAT4 (Phospho-Tyr693) (4000031744 (T)): 52519 | Average Signal of Replicate Spots: STAT6 (Phospho-Thr645) (4000031744 (T)): 1124 | Average Signal of Replicate Spots: SYK (Phospho-Tyr348) (4000031744 (T)): 1249 | Average Signal of Replicate Spots: Smad1 (Phospho-Ser187) (4000031744 (T)): 2057 | Average Signal of Replicate Spots: Smad2 (Phospho-Ser467) (4000031744 (T)): 1265 | Average Signal of Replicate Spots: Smad2/3 (Phospho-Thr8) (4000031744 (T)): 2539 | Average Signal of Replicate Spots: Smad3 (Phospho-Ser213) (4000031744 (T)): 1879 | Average Signal of Replicate Spots: Src (Phospho-Tyr418) (4000031744 (T)): 10867 | Average Signal of Replicate Spots: Tau (Phospho-Ser396) (4000031744 (T)): 1057 | Average Signal of Replicate Spots: VEGFR2 (Phospho-Tyr1175) (4000031744 (T)): 1051 | Average Signal of Replicate Spots: Zap-70 (Phospho-Tyr319) (4000031744 (T)): 1504 | Average Signal of Replicate Spots: c-Jun (Phospho-Ser73) (4000031744 (T)): 1180 | Average Signal of Replicate Spots: p44/42 MAP Kinase (Phospho-Tyr204) (4000031744 (T)): 1035 | Average Signal of Replicate Spots: p53 (Phospho-Ser15) (4000031744 (T)): 1903 | Data Normalized to Median Signal: 4E-BP1 (Phospho-Thr45) (4000031744 (T)): 3.29 | Data Normalized to Median Signal: 14-3-3 theta/tau (Phospho-Ser232) (4000031744 (T)): 1.12 | Data Normalized to Median Signal: ACC1 (Phospho-Ser80) (4000031744 (T)): 0.89 | Data Normalized to Median Signal: AMPKbeta1 (Phospho-Ser182) (4000031744 (T)): 0.93 | Data Normalized to Median Signal: B-RAF (Phospho-Ser446) (4000031744 (T)): 1.22 | Data Normalized to Median Signal: BCL-XL (Phospho-Ser62) (4000031744 (T)): 2.75 | Data Normalized to Median Signal: BLNK (Phospho-Tyr96) (4000031744 (T)): 0.68 | Data Normalized to Median Signal: CBL (Phospho-Tyr700) (4000031744 (T)): 1.31
